# Experimental data reported in patent publication US5099030A, “Novel compounds, pharmaceutical compositions, and methods for treating inflammation and pain” (The Procter & Gamble Company, priority 1991, dated 1992).
# Tests used:
# [1] = unless administered in toxic quantities; antipyretic analgesics; cited from earlier work
# [2] = Rodent Hot Plate Test; type: in vivo, male Sprague-Dawley rats
# Procedure: The degree of thermal analgesia obtained is determined using the "rodent hot plate test" (RHP). The RHP system is designed to detect and evaluate agents which elevate the threshold for the perception of pain. Classically, this method has been utilized primarily to evaluate opioid (narcotic) analgesic agents, such as morphine.
# Male Sprague-Dawley rats (Charles River Breeding Laboratories Inc.) weighing between 100 and 125 grams upon arrival are used to evaluate the compounds of the present invention. Animals are double housed in stainless steel cages, and are fed Purina Rat Chow and tap water ad libitum. The animals are food fasted the afternoon proceeding the day of the study, and food is returned 5 hours post-treatment. Animals not being dosed by oral gavage are not fasted.
# The apparatus for evaluating analgesic activity consists of an insulated copper hot plate whose surface is maintained at 55°±0.5° C. by a circulating water bath. A bottomless glass container (12" (30 cm) tall by 8" (20 cm) diameter) is used to restrict the animal to a defined area of the hot plate. After dosing, the animal is placed through the top opening of the container, and a stop watch is started when the animal makes contact with the plate. The stop-watch is stopped upon either of the following visually observed end points: (1) licking or biting of either hind paw, or (2) jumping. If the jump is not successful but both hind paws leave the surface of the plate in an effort to jump, this is considered jumping. The stop-watch is stopped at the end point and the animal is immediately removed from the hot plate. The time (latency) between the initial contact of the animal on the hot plate and the endpoint is recorded.
# Prior to dosing, animals are tested on the hot plate. This is denoted as pretest or base line latency. Usually, the animals are dosed by oral gavage, using a 1 cubic cm glass syringe connected to a size 8 french catheter. The dose volume is 5 ml/kg. On occasion, the animals are dosed by either subcutaneous administration or intravenous injection. Using the subcutaneous administration, a 1 ml tuberculin syringe is connected to a 25 gauge 5/8 inch needle, and injected under the skin in the neck or back region. For intravenous dosing, a 1 ml tuberculin syringe is connected to a 25 gauge 3/4 inch winged infusion set, and injected into the tail vein. The dose volume for subcutaneous and intravenous routes is 1 ml/kg. The latency times are typically recorded at 1.5, 3, 5, and 24 hours post-treatment. Much shorter times are recorded for an intravenous administration.
# [3] = Oral soft gelatin capsules in human (Example VIII); type: in vivo; details: two oral capsules, 225 mg of composition each, 60 kg human
# Procedure: (§1) A composition for oral administration is prepared by combining the following ingredients:
# The octadecenamide is dissolved in the sesame oil with the aid of sonication and is packaged in soft gelatin capsules using methods known in the art.
# [4] = Carrageenan Rat Paw Edema Test; type: in vivo, male Sprague Dawley rats; details: oral (stomach tube), 1 h before carrageenan, paw volume 4 h after carrageenan
# Procedure: Compounds of the present invention are tested for anti-inflammatory activity using the Carrageenan Rat Paw Edema Test.
# Male Sprague Dawley rats (Charles River Breeding Laboratories Inc.) are weighed and food fasted overnight. The animals are divided into four to six groups of six animals each according to body weights, average about 145 g, so that each group has about the same average weight (within 10 g).
# The following morning five ml of water is dosed orally via stomach tube to each animal to facilitate paw swelling. Thirty minutes later the animals are dosed with the test compound and then placed in individual cages. The compound of the present invention is dissolved in distilled deionized water with 1 equivalent of 1N acetic acid and delivered via stomach tube in 1 ml volume.
# One hour after dosing the test compound, the animals are placed in a plastic restrainer and 50 ul of a 1% (w/w) carrageenan solution in 0.9% saline is injected into the ventral surface of the left rear paw. Paw volumes (0 time) are determined on both hind paws with a mercury displacement device equipped with a transducer and digitizer following the carrageenan injection. Four hours after the carrageenan injection, the paw volumes are again determined.
# The results are expressed as percent inhibition of the mean paw volume of the test group relative to the control group according to the formula:
# (C-T a..n)/C×100=Percent Inhibition
# where C is the average difference in paw volume before and after carrageenan-induced swelling, and
# Ta..n is the difference in paw swelling in the treated animals (a..n). Statistical differences are determined by one way analysis of variance.
# [5] = Mouse Abdominal Constriction Assay (phenylquinone writhing); type: in vivo, male CF-1 mice; details: for % Analgesia: 1.5 h post-dose
# Procedure: Compounds of the present invention are tested for analgesic activity using the mouse abdominal constriction assay. This assay is described in Hendershot and Forsaith, J. Pharmacol. Exo.
# Male CF-1 mice (Charles River Breeding Laboratories, Inc.), weighing approximately 20 grams and food fasted overnight, are used in these assays. Test compounds are prepared for oral (p.o.) or subcutaneous (s.c.) administration, with compounds of the present invention being prepared in acidified (1N acetic acid) distilled deionized water so that the appropriate dose is given in 0.2 mls to a 20 gram mouse.
# Ten minutes after the i.p. injection of phenylquinone, the number of full body writhes are counted for the succeeding ten minutes. Percent analgesia in this assay is calculated as follows: [formula]
# [6] = Oral syrup in human (Example IX); type: in vivo; details: one teaspoon of syrup, 70 kg adult human
# Procedure: as §1
# The above ingredients are combined to produce a syrup and are packaged under sterile conditions in 6 oz. bottles.
compound,measurement,setting,value
CC(=O)Nc1ccc(O)cc1 [acetaminophen],activity in the RHP system,[1],little or no activity
CCCCCCCC/C=C\CCCCCCCC(=O)NCc1ccc(OCCN)c(OC)c1 [N-((4-(2-aminoethoxy)-3-methoxyphenyl)-methyl)-9Z-octadecenamide],Mean Latency Times,"[2]; 75 mg/kg oral, 1.5 hr post dose",21.8 s
same,Mean Latency Times,"[2]; 75 mg/kg oral, 3 hr post dose",18.9 s
same,Mean Latency Times,"[2]; 75 mg/kg oral, 5 hr post dose",18.7 s
same,Mean Latency Times,"[2]; 75 mg/kg oral, 24 hr post dose",11.2 s
same,Mean Latency Times,"[2]; 150 mg/kg oral, 1.5 hr post dose",30.6 s
same,Mean Latency Times,"[2]; 150 mg/kg oral, 3 hr post dose",18.9 s
same,Mean Latency Times,"[2]; 150 mg/kg oral, 5 hr post dose",15.0 s
same,Mean Latency Times,"[2]; 150 mg/kg oral, 24 hr post dose",11.5 s
same,Mean Latency Times,"[2]; 300 mg/kg oral, 1.5 hr post dose",30.7 s
same,Mean Latency Times,"[2]; 300 mg/kg oral, 3 hr post dose",22.6 s
same,Mean Latency Times,"[2]; 300 mg/kg oral, 5 hr post dose",21.0 s
same,Mean Latency Times,"[2]; 300 mg/kg oral, 24 hr post dose",16.5 s
same,potency and efficacy relative to codeine,[2]; oral,at least as potent and efficacious as the known opiate codeine
same,analgesia,[3],producing analogesia
same,reduction of inflammation,[3],reducing inflammation
same,% Inhibition (of paw volume/swelling vs control),[4]; 25 mg/kg,53.5%
same,% Inhibition (of paw volume/swelling vs control),[4]; 50 mg/kg,73.7%
same,% Inhibition (of paw volume/swelling vs control),[4]; 100 mg/kg,64.9%
same,% Inhibition (of paw volume/swelling vs control),[4]; 200 mg/kg,61.4%
same,% Analgesia,[5]; 1 mg/kg subcutaneous,22.3%
same,% Analgesia,[5]; 2 mg/kg subcutaneous,-13.7%
same,% Analgesia,[5]; 4 mg/kg subcutaneous,34.3%
same,% Analgesia,[5]; 8 mg/kg subcutaneous,57.8%
same,% Analgesia,[5]; 10 mg/kg oral,55.8%
same,% Analgesia,[5]; 10 mg/kg subcutaneous,91.4%
same,% Analgesia,[5]; 25 mg/kg oral,71.7%
same,% Analgesia,[5]; 75 mg/kg oral,88.3%
same,% Analgesia,[5]; 100 mg/kg subcutaneous,99.0%
same,% Analgesia,[5]; 150 mg/kg oral,95.5%
same,% Analgesia,[5]; 300 mg/kg oral,93.2%
same,analgesic potency compared with N-vanillyloleamide,"[5]; oral, at a substantially lower dose",substantially greater analgesic potency at a substantially lower dose
same,analgesia,[6],substantially similar reduction of inflammation and analgesic effect
same,reduction of inflammation,[6],substantially similar reduction of inflammation
CC(=O)Oc1ccccc1C(=O)O [aspirin],activity in the RHP system,[1],little or no activity
